Converted amounts (≈) assume the structure as drawn. Where two headings read alike, the source gives them in different places.
Experiments:
[1] = tested on: Staphylococcus aureus; assay: Susceptibility testing (MIC) Assay 1, broth microdilution; type: cell-based; conditions: Staphylococcus aureus
[2] = tested on: Streptococcus pneumoniae; assay: as above; type: cell-based
[3] = tested on: Streptococcus pyogenes; assay: as above; type: cell-based; conditions: Streptococcus pyogenes, in vivo strain, read-out: Spy MIC
[4] = tested on: Escherichia coli; assay: Susceptibility testing (MIC) Assay 2, broth microdilution; type: cell-based
[5] = tested on: Haemophilus influenzae; assay: as above; type: cell-based
[6] = tested on: Klebsiella pneumoniae; assay: as above; type: cell-based
[7] = tested on: Pseudomonas aeruginosa; assay: as above; type: cell-based; conditions: PAO1, read-out: Pae MIC
[8] = target: Escherichia coli DNA gyrase A/B tetramer (Escherichia coli (strain K12), UniProt P0AES4+P0AES6); assay: DNA gyrase supercoiling activity fluorescence polarisation assay; type: biochemical; conditions: Eco Gyr FP Mean IC50, E. coli DNA gyrase supercoiling, 0.3 mM ATP
Method in brief: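 Relaxed triplex-forming plasmid (130 micrograms/mL) supercoiled by 5 nM gyrase A/B tetramer in Tris-HCl pH 7.5 buffer with 4 mM MgCl2 and 0.3 mM ATP, ~30 min, ambient temperature. Quenched with 5′-BODIPY-FL triplex probe at pH 3.5; fluorescence anisotropy read after 60 min. IC50 by nonlinear regression against two control reactions.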

[9] = tested on: Neisseria gonorrhoeae; assay: MIC against 100 N. gonorrhoeae isolates, CLSI reference agar dilution; type: cell-based; conditions: all 100 N. gonorrhoeae isolates
[10] = tested on: 7 S. aureus strains and 1 strain of Streptococcus pyogenes; assay: Minimum bactericidal concentration (MBC); type: cell-based, Staphylococcus aureus; Streptococcus pyogenes; conditions: 7 S. aureus strains and 1 S. pyogenes strain
[11] = tested on: variants of S. aureus and S. pyogenes ARC838; assay: Susceptibility of Example 5 serial-passage variants to comparators; type: cell-based, Staphylococcus aureus; Streptococcus pyogenes; conditions: variants after twenty passages with Example 5
[12] = Staphylococcus aureus in vivo strain, MSQS, read-out: Sau(d) MIC
[13] = in vivo strain, MRQR, read-out: Sau(e) MIC
[14] = in vivo strain (footnote b), read-out: Spn(b) MIC
[15] = in vivo strain (footnote c), read-out: Spn(c) MIC
[16] = ATCC51907, Haemophilus influenzae, ATCC 51907, in vivo strain, read-out: Hin MIC
[17] = clinical isolate, mucoid, read-out: Kpn MIC
[18] = ATCC29213, Staphylococcus aureus, in vivo strain, ATCC 29213, read-out: Sau(d) MIC
[19] = MRSA, in vivo strain, MRSA, read-out: Sau(f) MIC
[20] = ATCC49619, Streptococcus pneumoniae, ATCC 49619, read-out: Spn(c) MIC
[21] = in vivo strain, read-out: Spn(b) MIC
[22] = ATCC25922, Escherichia coli, in vivo strain, ATCC 25922, read-out: Eco(b) MIC
[23] = ATCC35218, Escherichia coli, ATCC 35218, read-out: Eco(c) MIC
[24] = ATCC49247, Haemophilus influenzae, ATCC 49247, read-out: Hin MIC
[25] = ATCC700603, ATCC 700603, read-out: Kpn(e) MIC
[26] = clinical isolate, mucoid, read-out: Kpn(d) MIC
[27] = Neisseria gonorrhoeae, read-out: MIC50
[28] = Neisseria gonorrhoeae, read-out: MIC90

## C[C@@H]1CN2c3c(cc4c(N5C(=O)OC[C@@H]5C=NO)noc4c3F)CC3(C(=O)NC(=O)NC3=O)[C@H]2[C@H](C)O1 [Example 74, (2R,4S,4aS)-11-fluoro-8-{(4S)-4-[(hydroxyimino)methyl]-2-oxo-1,3-oxazolidin-3-yl}-2,4-dimethyl-1,2,4,4a-tetrahydro-2′H,6H-spiro[1,4-oxazino[4,3-a][1,2]oxazolo[4,5-g]quinoline-5,5′-pyrimidine]-2′,4′,6′(1′H,3′H)-trione]
[1]; [12]
  MIC: 6.2 µM
[1]; [13]
  MIC: 12 µM
[1]; serum, read-out: Sau(f) MIC
  MIC: 12 µM
[2]; [14]
  MIC: 1.6 µM
[2]; [15]
  MIC: 1.6 µM
[3]; Streptococcus pyrgenes
  MIC: 1.6 µM
[4]; K12, read-out: Eco MIC
  MIC: 100 µM
[5]; [16]
  MIC: 0.78 µM
[6]; [17]
  MIC: > 200 µM
[7]
  MIC: > 200 µM
[8]
  IC50: 470 nM

## C[C@@H]1CN2c3c(cc4c(N5C[C@H](C#N)OC5=O)noc4c3F)CC3(C(=O)NC(=O)NC3=O)[C@H]2[C@H](C)O1 [Example 75, (5R)-3-[(2R,4S,4aS)-11-Fluoro-2,4-dimethyl-2′,4′,6′-trioxo-1,1′,2,3′,4,4′,4a,6′-octahydro-2′H,6H-spiro[1,4-oxazino[4,3-a][1,2]oxazolo[4,5-g]quinoline-5,5′-pyrimidin]-8-yl]-2-oxo-1,3-oxazolidine-5-carbonitrile]
[1]; [12]
  MIC: 0.28 µM
[1]; [13]
  MIC: 2.2 µM
[1]; serum, read-out: Sau(f) MIC
  MIC: 0.39 µM
[2]; [14]
  MIC: 0.78 µM
[2]; [15]
  MIC: 1.62 µM
[3]; Streptococcus pyrgenes
  MIC: 0.55 µM
[4]; K12, read-out: Eco MIC
  MIC: 100 µM
[5]; [16]
  MIC: 0.78 µM
[6]; [17]
  MIC: > 200 µM
[7]
  MIC: > 200 µM
[8]
  IC50: 710 nM

## C[C@@H]1CN2c3c(cc4c(N5C[C@@H](C#N)OC5=O)noc4c3F)CC3(C(=O)NC(=O)NC3=O)[C@H]2[C@H](C)O1 [Example 76, (5S)-3-[(2R,4S,4aS)-11-fluoro-2,4-dimethyl-2′,4′,6′-trioxo-1,1′,2,3′,4,4′,4a,6′-octahydro-2′H,6H-spiro[1,4-oxazino[4,3-a][1,2]oxazolo[4,5-g]quinoline-5,5′-pyrimidin]-8-yl]-2-oxo-1,3-oxazolidine-5-carbonitrile]
[1]; [12]
  MIC: 0.39 µM
[1]; [13]
  MIC: 1.6 µM
[1]; serum, read-out: Sau(f) MIC
  MIC: 0.78 µM
[2]; [14]
  MIC: 0.39 µM
[2]; [15]
  MIC: 0.78 µM
[3]; Streptococcus pyrgenes
  MIC: 0.39 µM
[4]; K12, read-out: Eco MIC
  MIC: 50 µM
[5]; [16]
  MIC: 0.78 µM
[6]; [17]
  MIC: > 200 µM
[7]
  MIC: > 200 µM
[8]
  IC50: 550 nM

## C[C@@H]1CN2c3c(cc4c(N5C(=O)OC[C@@H]5[C@@H](C)O)noc4c3F)CC3(C(=O)NC(=O)NC3=O)[C@H]2[C@H](C)O1 [Example 77]
[1]; [12]
  MIC: 3.1 µM
[1]; [13]
  MIC: 12 µM
[1]; serum, read-out: Sau(f) MIC
  MIC: 6.2 µM
[2]; [14]
  MIC: 0.78 µM
[2]; [15]
  MIC: 0.78 µM
[3]; Streptococcus pyrgenes
  MIC: 0.78 µM
[4]; K12, read-out: Eco MIC
  MIC: 200 µM
[5]; [16]
  MIC: 0.78 µM
[6]; [17]
  MIC: > 200 µM
[7]
  MIC: > 200 µM
[8]
  IC50: 530 nM

## C[C@@H]1CN2c3c(cc4c(N5C(=O)O[C@H](C)[C@@H]5CF)noc4c3F)CC3(C(=O)NC(=O)NC3=O)[C@H]2[C@H](C)O1 [Example 78, (2R,4S,4aS)-11-Fluoro-8-((4R,5R)-4-(fluoromethyl)-5-methyl-2-oxooxazolidin-3-yl)-2,4-dimethyl-2,4,4a,6-tetrahydro-1H,1′H-spiro[isoxazolo[4,5-g][1,4]oxazino[4,3-a]quinoline-5,5′-pyrimidine]-2′,4′,6′(3′H)-trione]
[1]; [18]
  MIC: 1 µg/mL
[1]; [19]
  MIC: 1 µg/mL
[1]; [13]
  MIC: 2 µg/mL
[2]; [20]
  MIC: 2 µg/mL
[2]; [21]
  MIC: 2 µg/mL
[3]; Streptococcus pyrogenes
  MIC: 1 µg/mL
[4]; [22]
  MIC: 16 µg/mL
[4]; [23]
  MIC: 32 µg/mL
[5]; [24]
  MIC: 2 µg/mL
[6]; [25]
  MIC: > 64 µg/mL
[6]; [26]
  MIC: > 64 µg/mL
[7]; Pseudomonoas aeruginosa
  MIC: > 64 µg/mL
[8]
  IC50: 440 nM

## COC[C@H]1[C@@H](C)OC(=O)N1c1noc2c(F)c3c(cc12)CC1(C(=O)NC(=O)NC1=O)[C@H]1[C@H](C)O[C@H](C)CN31 [Example 79, (2R,4S,4aS)-11-fluoro-8-((4S,5R)-4-(methoxymethyl)-5-methyl-2-oxooxazolidin-3-yl)-2,4-dimethyl-2,4,4a,6-tetrahydro-1H,1′H-spiro[isoxazolo[4,5-g][1,4]oxazino[4,3-a]quinoline-5,5′-pyrimidine]-2′,4′,6′(3′H)-trione]
[1]; [18]
  MIC: 1 µg/mL
[1]; [19]
  MIC: 1 µg/mL
[1]; [13]
  MIC: 2 µg/mL
[2]; [20]
  MIC: 1 µg/mL
[2]; [21]
  MIC: 2 µg/mL
[3]; Streptococcus pyrogenes
  MIC: 1 µg/mL
[4]; [22]
  MIC: 32 µg/mL
[4]; [23]
  MIC: 64 µg/mL
[5]; [24]
  MIC: 0.5 µg/mL
[6]; [25]
  MIC: > 64 µg/mL
[6]; [26]
  MIC: > 64 µg/mL
[7]; Pseudomonoas aeruginosa
  MIC: > 64 µg/mL
[8]
  IC50: > 2100 nM

## COC[C@@H]1[C@@H](C)OC(=O)N1c1noc2c(F)c3c(cc12)CC1(C(=O)NC(=O)NC1=O)[C@H]1[C@H](C)O[C@H](C)CN31 [Example 80, (2R,4S,4aS)-11-fluoro-8-((4R,5R)-4-(methoxymethyl)-5-methyl-2-oxooxazolidin-3-yl)-2,4-dimethyl-2,4,4a,6-tetrahydro-1H,1′H-spiro[isoxazolo[4,5-g][1,4]oxazino[4,3-a]quinoline-5,5′-pyrimidine]-2′,4′,6′(3′H)-trione]
[1]; [18]
  MIC: 16 µg/mL
[1]; [19]
  MIC: 16 µg/mL
[1]; [13]
  MIC: 32 µg/mL
[2]; [20]
  MIC: 32 µg/mL
[2]; [21]
  MIC: 64 µg/mL
[3]; Streptococcus pyrogenes
  MIC: 16 µg/mL
[4]; [22]
  MIC: > 64 µg/mL
[4]; [23]
  MIC: > 64 µg/mL
[5]; [24]
  MIC: 1 µg/mL
[6]; [25]
  MIC: > 64 µg/mL
[6]; [26]
  MIC: > 64 µg/mL
[7]; Pseudomonoas aeruginosa
  MIC: > 64 µg/mL
[8]
  IC50: 170 nM

## CC[C@H]1OC(=O)[C@H](C)[C@@H](O[C@H]2C[C@@](C)(OC)[C@@H](O)[C@H](C)O2)[C@H](C)[C@@H](O[C@@H]2O[C@H](C)C[C@H](N(C)C)[C@H]2O)[C@](C)(O)C[C@@H](C)CN(C)[C@H](C)[C@@H](O)[C@]1(C)O [azithromycin, reference compound]
[9]; [27]
  MIC50: 0.25 µg/mL (≈ 0.334 µM)
[9]; [28]
  MIC90: 0.5 µg/mL (≈ 0.668 µM)

## C=CC1=C(C(=O)O)N2C(=O)[C@@H](NC(=O)/C(=N\OCC(=O)O)c3csc(N)n3)[C@H]2SC1 [cefixime, reference compound]
[9]
  MIC50: 0.03 µg/mL (≈ 0.0662 µM)
  MIC90: 0.06 µg/mL (≈ 0.132 µM)

## CO/N=C(\C(=O)N[C@@H]1C(=O)N2C(C(=O)O)=C(CSc3nc(=O)c(O)nn3C)CS[C@H]12)c1csc(N)n1 [ceftriaxone, reference compound]
[9]
  MIC50: 0.015 µg/mL (≈ 0.027 µM)

## CO/N=C(\C(=O)N[C@@H]1C(=O)N2C(C(=O)O)=C(CSc3nc(=O)c(O)nn3C)CS[C@H]12)c1csc(N)n1 [ceftriazone, reference compound]
[9]
  MIC90: 0.06 µg/mL (≈ 0.108 µM)

## C[C@H]1COc2c(N3CCN(C)CC3)c(F)cc3c(=O)c(C(=O)O)cn1c23 [levofloxacin]
[10]
  minimum bactericidal concentrations (MBCs) relative to the MIC: ≤ 2 fold
[11]
  change in susceptibility of Example 5-selected variants: ≤ 4 fold

## CC(=O)NC[C@H]1CN(c2ccc(N3CCOCC3)c(F)c2)C(=O)O1 [linezolid]
[11]
  change in susceptibility of Example 5-selected variants: ≤ 4 fold

## CC1(C)S[C@@H]2[C@H](NC(=O)Cc3ccccc3)C(=O)N2[C@H]1C(=O)O [penicillin, reference compound]
[9]; [27]
  MIC50: 2 µg/mL (≈ 5.98 µM)
[9]; [28]
  MIC90: > 2 µg/mL

## CN(C)[C@@H]1C(=O)C(C(N)=O)=C(O)[C@@]2(O)C(=O)C3=C(O)c4c(O)cccc4[C@@](C)(O)[C@H]3C[C@@H]12 [tetracycline, reference compound]
[9]
  MIC50: 1 µg/mL (≈ 2.25 µM)
  MIC90: 2 µg/mL (≈ 4.5 µM)

## CN[C@H](CC(C)C)C(=O)N[C@H]1C(=O)N[C@@H](CC(N)=O)C(=O)N[C@H]2C(=O)N[C@H]3C(=O)N[C@H](C(=O)N[C@H](C(=O)O)c4cc(O)cc(O)c4-c4cc3ccc4O)[C@H](O)c3ccc(c(Cl)c3)Oc3cc2cc(c3O[C@@H]2O[C@H](CO)[C@@H](O)[C@H](O)[C@H]2O[C@H]2C[C@](C)(N)[C@H](O)[C@H](C)O2)Oc2ccc(cc2Cl)[C@H]1O [vancomycin]
[10]
  minimum bactericidal concentrations (MBCs) relative to the MIC: ≤ 2 fold
[11]
  change in susceptibility of Example 5-selected variants: ≤ 4 fold

Source: US8889671B2, “Compounds and methods for treating bacterial infections” (AstraZeneca AB, priority 2013, dated 2014)
